In ChEMBL document CHEMBL5653631, “A Potent and Selective ULK1 Inhibitor Suppresses Autophagy and Sensitizes Cancer Cells to Nutrient Stress” (iScience, 2018):
One block for each molecule: values may come before it.

Key:
[1] = molecular target: Serine/threonine-protein kinase WNK1 (Homo sapiens) (UniProt Q9H4A3); assay: Inhibition of human recombinant Wnk1 at 500 nM related to control ULK1
[2] = molecular target: T1, Ephrin type-A receptor 3 (Homo sapiens) (UniProt P29320); assay: Inhibition of human recombinant EphA3 at 500 nM in presence of ATP by radiometric assay relative to control
T1 sequence (whole entry): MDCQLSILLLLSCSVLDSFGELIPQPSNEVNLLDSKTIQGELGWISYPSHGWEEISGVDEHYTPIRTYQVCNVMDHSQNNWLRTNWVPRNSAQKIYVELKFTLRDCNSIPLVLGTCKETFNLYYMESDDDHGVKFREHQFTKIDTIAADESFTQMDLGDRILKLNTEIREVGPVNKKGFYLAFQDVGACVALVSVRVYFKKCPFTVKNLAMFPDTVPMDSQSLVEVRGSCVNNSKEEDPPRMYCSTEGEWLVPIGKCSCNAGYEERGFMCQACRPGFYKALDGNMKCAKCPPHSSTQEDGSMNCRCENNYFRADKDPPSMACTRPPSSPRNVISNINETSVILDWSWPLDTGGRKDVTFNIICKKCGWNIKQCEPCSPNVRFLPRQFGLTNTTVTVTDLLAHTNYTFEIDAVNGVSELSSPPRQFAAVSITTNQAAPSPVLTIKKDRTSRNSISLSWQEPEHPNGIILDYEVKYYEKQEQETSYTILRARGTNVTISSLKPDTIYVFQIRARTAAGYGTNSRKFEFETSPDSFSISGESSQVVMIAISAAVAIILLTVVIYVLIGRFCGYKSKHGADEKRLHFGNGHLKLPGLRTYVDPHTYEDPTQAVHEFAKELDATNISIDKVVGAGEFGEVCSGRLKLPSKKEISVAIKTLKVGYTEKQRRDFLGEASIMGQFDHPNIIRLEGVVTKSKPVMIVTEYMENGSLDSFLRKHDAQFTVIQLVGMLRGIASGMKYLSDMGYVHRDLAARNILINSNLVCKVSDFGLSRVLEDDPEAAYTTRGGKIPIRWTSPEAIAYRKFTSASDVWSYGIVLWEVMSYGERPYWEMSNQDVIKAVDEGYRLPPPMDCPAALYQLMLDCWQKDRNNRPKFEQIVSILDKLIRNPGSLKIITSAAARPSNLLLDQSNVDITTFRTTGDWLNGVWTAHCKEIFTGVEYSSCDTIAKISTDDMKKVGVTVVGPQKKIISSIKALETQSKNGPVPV

[3] = molecular target: Serine/threonine-protein kinase PAK 1 (Homo sapiens) (UniProt Q13153); assay: Inhibition of human recombinant PAK1 at 500 nM in presence of ATP by radiometric assay relative to control
[4] = molecular target: Serine/threonine-protein kinase SIK1 (Homo sapiens) (UniProt P57059); assay: Inhibition of human recombinant SIK at 500 nM in presence of ATP by radiometric assay relative to control
[5] = molecular target: Transcription initiation factor TFIID subunit 1-like (Homo sapiens) (UniProt Q8IZX4); assay: Inhibition of human recombinant TAF1L at 15 nM related to control ULK1
[6] = molecular target: Cell division cycle 7-related protein kinase (Homo sapiens) (UniProt O00311); assay: Inhibition of human recombinant CDC7 at 15 nM related to control ULK1
[7] = molecular target: Leucine-rich repeat serine/threonine-protein kinase 2 (Homo sapiens) (UniProt Q5S007); assay: Inhibition of human recombinant LRRK2 at 40 nM in presence of ATP by radiometric assay relative to control
[8] = molecular target: Misshapen-like kinase 1 (Homo sapiens) (UniProt Q8N4C8); assay: Inhibition of human recombinant MINK at 40 nM in presence of ATP by radiometric assay relative to control
[9] = molecular target: PAS domain-containing serine/threonine-protein kinase (Homo sapiens) (UniProt Q96RG2); assay: Inhibition of human recombinant PASK at 40 nM in presence of ATP by radiometric assay relative to control
[10] = molecular target: T2, Muscle, skeletal receptor tyrosine-protein kinase (Homo sapiens) (UniProt O15146); assay: Inhibition of human recombinant MUSK at 40 nM related to control ULK1
T2 sequence (whole entry): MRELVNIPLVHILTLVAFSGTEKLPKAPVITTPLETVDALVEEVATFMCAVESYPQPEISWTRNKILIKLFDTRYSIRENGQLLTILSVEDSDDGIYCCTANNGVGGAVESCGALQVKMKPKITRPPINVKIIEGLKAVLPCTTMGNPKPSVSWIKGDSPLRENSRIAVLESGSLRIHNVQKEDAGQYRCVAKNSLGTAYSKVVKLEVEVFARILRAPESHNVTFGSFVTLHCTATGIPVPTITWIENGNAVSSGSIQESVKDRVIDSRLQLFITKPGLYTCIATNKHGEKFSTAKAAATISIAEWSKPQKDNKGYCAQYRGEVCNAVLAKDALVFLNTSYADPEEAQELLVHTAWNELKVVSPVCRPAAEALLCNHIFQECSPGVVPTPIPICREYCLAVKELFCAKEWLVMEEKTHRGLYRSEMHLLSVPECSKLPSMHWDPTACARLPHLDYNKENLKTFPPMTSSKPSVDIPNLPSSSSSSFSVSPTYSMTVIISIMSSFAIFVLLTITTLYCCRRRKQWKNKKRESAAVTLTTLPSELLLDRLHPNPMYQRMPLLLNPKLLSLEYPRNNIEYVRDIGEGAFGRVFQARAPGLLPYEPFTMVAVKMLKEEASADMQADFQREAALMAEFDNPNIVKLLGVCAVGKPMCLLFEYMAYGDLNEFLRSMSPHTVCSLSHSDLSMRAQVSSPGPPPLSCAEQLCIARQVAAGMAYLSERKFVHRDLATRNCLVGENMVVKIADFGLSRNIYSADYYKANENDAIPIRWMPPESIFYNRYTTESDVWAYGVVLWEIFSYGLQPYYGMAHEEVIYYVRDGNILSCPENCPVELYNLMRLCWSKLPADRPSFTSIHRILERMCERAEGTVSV

[11] = molecular target: Tyrosine-protein kinase Fyn (Homo sapiens) (UniProt P06241); assay: Inhibition of human recombinant FYN at 40 nM related to control ULK1
Tyrosine-protein kinase Fyn (Homo sapiens), sequence (P06241 2-537 limits assumed): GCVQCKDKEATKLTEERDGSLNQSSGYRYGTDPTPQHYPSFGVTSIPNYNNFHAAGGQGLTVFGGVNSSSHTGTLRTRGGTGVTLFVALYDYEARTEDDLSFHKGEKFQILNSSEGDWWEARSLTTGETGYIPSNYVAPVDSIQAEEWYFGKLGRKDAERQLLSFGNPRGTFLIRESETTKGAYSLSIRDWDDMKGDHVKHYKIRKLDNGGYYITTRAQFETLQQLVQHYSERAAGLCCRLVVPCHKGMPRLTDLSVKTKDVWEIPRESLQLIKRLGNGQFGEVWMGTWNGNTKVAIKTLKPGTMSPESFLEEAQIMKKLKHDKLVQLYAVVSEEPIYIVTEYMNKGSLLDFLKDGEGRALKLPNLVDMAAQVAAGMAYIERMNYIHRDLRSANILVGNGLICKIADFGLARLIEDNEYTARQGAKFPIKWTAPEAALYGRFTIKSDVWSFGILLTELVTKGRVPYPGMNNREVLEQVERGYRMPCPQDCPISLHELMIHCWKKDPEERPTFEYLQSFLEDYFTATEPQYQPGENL

Serine/threonine-protein kinase SIK1 (Homo sapiens), sequence (P57059 whole entry): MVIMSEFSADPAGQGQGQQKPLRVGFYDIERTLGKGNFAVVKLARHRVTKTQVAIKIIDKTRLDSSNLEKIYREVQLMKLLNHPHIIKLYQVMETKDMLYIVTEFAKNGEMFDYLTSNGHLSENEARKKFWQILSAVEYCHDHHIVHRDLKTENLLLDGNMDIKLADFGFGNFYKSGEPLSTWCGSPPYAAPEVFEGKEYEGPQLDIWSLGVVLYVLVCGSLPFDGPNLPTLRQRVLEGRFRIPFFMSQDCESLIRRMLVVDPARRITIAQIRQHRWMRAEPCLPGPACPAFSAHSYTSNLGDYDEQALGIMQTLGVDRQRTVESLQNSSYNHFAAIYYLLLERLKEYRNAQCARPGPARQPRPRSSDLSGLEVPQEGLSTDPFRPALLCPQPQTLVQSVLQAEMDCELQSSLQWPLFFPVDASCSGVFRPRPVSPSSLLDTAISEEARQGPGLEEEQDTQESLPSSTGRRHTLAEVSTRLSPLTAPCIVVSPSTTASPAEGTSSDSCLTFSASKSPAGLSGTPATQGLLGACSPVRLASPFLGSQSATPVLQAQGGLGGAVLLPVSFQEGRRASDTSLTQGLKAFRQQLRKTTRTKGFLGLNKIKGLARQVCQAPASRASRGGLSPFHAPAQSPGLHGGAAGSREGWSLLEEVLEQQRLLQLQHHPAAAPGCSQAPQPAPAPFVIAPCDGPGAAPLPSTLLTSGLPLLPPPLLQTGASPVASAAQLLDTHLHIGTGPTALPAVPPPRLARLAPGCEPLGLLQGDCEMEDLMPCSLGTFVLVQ
Serine/threonine-protein kinase WNK1 (Homo sapiens), sequence (Q9H4A3 whole entry, looked up): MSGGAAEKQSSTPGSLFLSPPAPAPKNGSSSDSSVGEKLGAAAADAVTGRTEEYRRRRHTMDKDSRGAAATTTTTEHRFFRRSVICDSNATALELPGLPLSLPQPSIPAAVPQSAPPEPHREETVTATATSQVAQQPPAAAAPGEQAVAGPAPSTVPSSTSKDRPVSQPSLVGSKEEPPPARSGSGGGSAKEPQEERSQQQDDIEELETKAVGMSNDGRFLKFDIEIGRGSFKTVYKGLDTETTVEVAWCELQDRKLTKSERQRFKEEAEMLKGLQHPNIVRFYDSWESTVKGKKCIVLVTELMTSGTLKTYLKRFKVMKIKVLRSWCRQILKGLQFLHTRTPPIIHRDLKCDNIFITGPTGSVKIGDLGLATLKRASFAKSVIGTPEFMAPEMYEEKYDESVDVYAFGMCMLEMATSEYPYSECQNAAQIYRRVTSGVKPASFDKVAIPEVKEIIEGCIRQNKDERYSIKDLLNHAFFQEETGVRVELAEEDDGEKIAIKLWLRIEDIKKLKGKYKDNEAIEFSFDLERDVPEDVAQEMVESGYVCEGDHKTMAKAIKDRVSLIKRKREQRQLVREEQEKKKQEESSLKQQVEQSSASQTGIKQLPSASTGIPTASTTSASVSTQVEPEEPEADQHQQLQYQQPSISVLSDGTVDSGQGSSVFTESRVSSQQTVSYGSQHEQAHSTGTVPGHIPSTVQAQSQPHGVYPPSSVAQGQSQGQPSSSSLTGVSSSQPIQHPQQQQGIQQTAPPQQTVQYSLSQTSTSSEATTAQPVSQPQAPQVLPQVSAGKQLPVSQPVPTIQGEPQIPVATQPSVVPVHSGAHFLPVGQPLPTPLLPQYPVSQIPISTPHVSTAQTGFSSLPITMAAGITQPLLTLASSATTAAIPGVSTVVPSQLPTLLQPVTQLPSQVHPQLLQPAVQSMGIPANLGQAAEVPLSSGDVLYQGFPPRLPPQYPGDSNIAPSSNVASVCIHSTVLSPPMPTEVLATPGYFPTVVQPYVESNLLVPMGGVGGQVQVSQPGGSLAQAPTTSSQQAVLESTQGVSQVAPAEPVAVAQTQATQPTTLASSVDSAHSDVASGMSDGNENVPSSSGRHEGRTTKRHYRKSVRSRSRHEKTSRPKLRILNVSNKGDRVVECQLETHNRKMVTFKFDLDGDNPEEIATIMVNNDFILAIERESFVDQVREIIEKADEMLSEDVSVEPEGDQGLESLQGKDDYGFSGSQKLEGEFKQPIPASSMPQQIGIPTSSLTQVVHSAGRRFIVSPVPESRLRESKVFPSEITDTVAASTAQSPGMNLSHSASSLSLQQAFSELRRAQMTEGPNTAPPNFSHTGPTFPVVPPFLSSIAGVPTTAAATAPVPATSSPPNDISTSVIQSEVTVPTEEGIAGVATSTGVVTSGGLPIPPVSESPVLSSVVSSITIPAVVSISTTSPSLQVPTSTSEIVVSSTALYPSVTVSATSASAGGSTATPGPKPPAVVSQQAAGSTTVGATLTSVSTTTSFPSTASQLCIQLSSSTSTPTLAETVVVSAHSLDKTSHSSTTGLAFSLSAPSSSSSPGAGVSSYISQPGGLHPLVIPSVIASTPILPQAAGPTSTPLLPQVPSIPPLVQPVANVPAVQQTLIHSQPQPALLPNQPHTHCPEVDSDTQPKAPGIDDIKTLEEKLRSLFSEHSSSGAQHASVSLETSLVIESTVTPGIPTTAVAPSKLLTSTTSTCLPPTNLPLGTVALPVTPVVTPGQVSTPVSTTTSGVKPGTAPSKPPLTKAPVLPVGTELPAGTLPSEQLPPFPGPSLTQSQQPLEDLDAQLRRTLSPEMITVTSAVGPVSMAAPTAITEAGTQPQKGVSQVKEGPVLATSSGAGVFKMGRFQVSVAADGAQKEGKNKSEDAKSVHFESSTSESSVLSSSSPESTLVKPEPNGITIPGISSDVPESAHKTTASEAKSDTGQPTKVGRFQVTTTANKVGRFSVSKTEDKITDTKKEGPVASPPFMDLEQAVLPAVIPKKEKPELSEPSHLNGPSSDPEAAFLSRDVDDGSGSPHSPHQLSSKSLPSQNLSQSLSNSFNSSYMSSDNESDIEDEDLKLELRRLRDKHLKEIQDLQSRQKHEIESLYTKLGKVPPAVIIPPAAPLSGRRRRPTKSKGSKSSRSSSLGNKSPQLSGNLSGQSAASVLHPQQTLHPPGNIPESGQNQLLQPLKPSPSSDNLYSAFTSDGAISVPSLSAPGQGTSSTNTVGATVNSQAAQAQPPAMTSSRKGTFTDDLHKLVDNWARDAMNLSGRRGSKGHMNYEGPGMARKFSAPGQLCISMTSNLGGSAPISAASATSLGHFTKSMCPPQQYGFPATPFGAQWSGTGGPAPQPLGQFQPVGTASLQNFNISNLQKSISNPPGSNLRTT
PAS domain-containing serine/threonine-protein kinase (Homo sapiens), sequence (Q96RG2 whole entry, the tested form may be a part): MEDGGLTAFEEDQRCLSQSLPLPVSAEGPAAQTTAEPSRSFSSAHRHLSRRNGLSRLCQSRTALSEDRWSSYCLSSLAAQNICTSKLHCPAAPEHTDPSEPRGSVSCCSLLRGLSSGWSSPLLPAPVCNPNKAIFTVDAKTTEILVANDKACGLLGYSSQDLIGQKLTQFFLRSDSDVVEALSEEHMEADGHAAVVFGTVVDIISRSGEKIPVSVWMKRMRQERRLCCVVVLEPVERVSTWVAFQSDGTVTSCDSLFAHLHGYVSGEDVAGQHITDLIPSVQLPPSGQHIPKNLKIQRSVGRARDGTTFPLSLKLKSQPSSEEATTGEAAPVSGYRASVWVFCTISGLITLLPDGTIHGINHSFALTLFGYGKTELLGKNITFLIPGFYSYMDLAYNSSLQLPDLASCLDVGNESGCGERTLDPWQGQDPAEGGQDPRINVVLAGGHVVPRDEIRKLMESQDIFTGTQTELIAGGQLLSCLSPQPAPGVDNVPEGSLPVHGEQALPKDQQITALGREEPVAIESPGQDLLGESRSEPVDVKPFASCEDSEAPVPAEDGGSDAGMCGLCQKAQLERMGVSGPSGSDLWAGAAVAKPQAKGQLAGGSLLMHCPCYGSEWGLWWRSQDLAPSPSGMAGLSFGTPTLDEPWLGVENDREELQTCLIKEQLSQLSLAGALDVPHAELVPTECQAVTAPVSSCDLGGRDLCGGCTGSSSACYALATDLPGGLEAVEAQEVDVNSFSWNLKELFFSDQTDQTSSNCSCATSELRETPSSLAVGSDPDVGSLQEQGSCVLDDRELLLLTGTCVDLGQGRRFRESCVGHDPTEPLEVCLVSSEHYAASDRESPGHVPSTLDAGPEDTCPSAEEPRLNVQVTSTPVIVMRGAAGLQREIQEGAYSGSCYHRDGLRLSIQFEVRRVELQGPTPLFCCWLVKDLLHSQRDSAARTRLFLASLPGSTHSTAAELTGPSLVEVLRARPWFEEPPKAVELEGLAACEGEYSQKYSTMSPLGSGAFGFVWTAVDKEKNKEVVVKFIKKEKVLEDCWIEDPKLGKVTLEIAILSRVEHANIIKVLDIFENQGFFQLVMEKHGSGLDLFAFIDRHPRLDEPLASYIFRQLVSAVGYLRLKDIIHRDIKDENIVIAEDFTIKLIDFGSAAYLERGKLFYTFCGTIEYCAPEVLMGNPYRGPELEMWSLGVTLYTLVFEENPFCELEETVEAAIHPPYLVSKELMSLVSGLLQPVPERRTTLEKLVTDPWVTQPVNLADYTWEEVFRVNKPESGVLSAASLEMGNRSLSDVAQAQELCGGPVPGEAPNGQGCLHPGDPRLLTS

- fold change (FC) [1]: 0
- inhibition [2]: 11%
- inhibition [3]: 20%
- inhibition [4]: 20%
Compound: CNC(=O)c1ccccc1Oc1nc(Nc2cc(OC)c(OC)c(OC)c2)ncc1Br

- fold change (FC) [5]: 0.49
- fold change (FC) [6]: 0.09
Compound: CC(C)[C@H](NC(=O)c1cc(-c2cnn3cc(-c4ccc(OCCN5CCCCC5)cc4)cnc23)cs1)C(F)(F)F

- inhibition [7]: 3%
- inhibition [8]: 7%
- inhibition [9]: 12%
- fold change (FC) [10]: 0.18
- fold change (FC) [11]: 0
Compound: O=C(N[C@@H](C1CC1)C(F)(F)F)c1cc(-c2cnn3cc(-c4ccc(F)cc4)cnc23)cs1
